# Source: article PMC3984052 (Bioorganic & medicinal chemistry, 2014)
# Legend:
# [1] = in vivo; for Tolerability after repeated dosing: mouse
# [2] = system: PrP^C on the cell surface of human T98G glioblastoma cells; format: cell-based; settings: EC50 ratio
smiles,measurement,setting,value
COc1ccc(Cl)cc1C(=O)N1CCN(c2cccc(Cl)c2)CC1 [IND30802],Brain concentration relative to the EC50 value determined by ELISA,"[1]; female, CD-1, mouse",100 ×
same,Tolerability after repeated dosing,[1],well tolerated
NC(=O)c1ccccc1NC(=O)c1cccnc1N1CCCCC1 [IND87406],Tolerability after repeated dosing,[1],well tolerated
O=C(Cc1ccc(-c2ccccc2)cc1)NCc1ccccc1 [IND116065],Potency relative to the bromo analog (IND61769),[2],5 fold
